Test results: patent publication US10087142B2, “Azetidine derivatives useful as modulators of cortical cathecolaminergic neurotransmission” (Integrative Research Laboratories Sweden AB, priority 2015, dated 2018)
Counter-ions that a name gives are not always drawn. Like-named read-outs stand apart in the source and are kept apart here. Marks after values point to notes of the source that are not given here.

Key:
[1] = test system: non-pre-treated Sprague-Dawley rats; assay: Locomotor activity in drug-naïve rats (behaviour test); format: in vivo, rat; conditions: recorded 60 minutes, n = 5
Protocol: The effect of compounds in the present disclosure on locomotor activity in drug-naïve rats was also investigated. The animals were placed in the motility meters immediately after drug administration and locomotor activity was recorded for 60 minutes (counts/60 min±SEM). The results are presented as percent of control.
Behavioural activity was measured using eight Digiscan activity monitors (RXYZM (16) TAO, Omnitech Electronics, Columbus, Ohio, USA), connected to an Omnitech Digiscan analyzer and an Apple Macintosh computer equipped with a digital interface board (NB DIO-24, National Instruments, USA). Each activity monitor consisted of a quadratic metal frame (W×L=40 cm×40 cm) equipped with photo beam sensors. During measurements of behavioural activity, a rat was put in a transparent acrylic cage (W×L×H, 40×40×30 cm) which in turn was placed in the activity monitor. Each activity monitor was equipped with three rows of infrared photo beam sensors, each row consisting of 16 sensors. Two rows were placed along the front and the side of the floor of the cage, at a 90° angle, and the third row was placed 10 cm above the floor to measure vertical activity. Photo beam sensors were spaced 2.5 cm apart. Each activity monitor was fitted in an identical sound and light attenuating box containing a weak house light and a fan.
The computer software was written using object oriented programming (LabVIEW™, National instruments, Austin, Tex., USA).
Behavioural data from each activity monitor, representing the position (horizontal center of gravity and vertical activity) of the animal at each time, were recorded at a sampling frequency of 25 Hz and collected using a custom written LABView™ application. The data from each recording session were stored and analyzed with respect to distance traveled. Each behavioural recording session lasted 60 min, starting approximately 5 min after the injection of test compound.
Compounds disclosed herein have been tested for effects on spontaneous locomotor activity in non-pre-treated Sprague-Dawley rats (based on accumulated distance traveled 0-60 min post dosing), and with doses up to 33 μmol/kg (s.c.).

[2] = test system: monoamine transmitters (NA, DA and 5-HT); assay: In vivo brain microdialysis of monoamines in striatum and frontal cortex; parameters: species or system rat; conditions: rats; for response vs control in vivo at 50 µmol/kg: Rattus norvegicus, sc
Text: The microdialysis technique (See, for instance, Collin and Ungerstedt, Microdialysis: user's guide, Carnegie Medicin, Stockholm, 1988) is a well-established technique for measuring extracellular levels of neurotransmitters (Ungerstedt, J Int Med, 1991, 230; 365-73). The microdialysis technique was used to measure the effect of compounds disclosed herein upon the efflux of monoamine transmitters (NA, DA and 5-HT) in striatum and frontal cortex in conscious, freely moving rats.
Male Sprague-Dawley rats weighing 280-320 g were used throughout the experiments. Before the experiment the animals were housed in groups, maximum five animals in each cage, with free access to water and food. The animals were housed at least one week prior to surgery and use in the experiments.
A modified version (Waters et al., J Neural Transm Gen Sect, 1994, 98(1); 39-55) of the I-shaped probe (Santiago and Westerink, N-S Arch Pharmacol, 1990, 342; 407-14) with the AN69 polyacrylonitrile/sodium methyl sulfonate copolymer (HOSPAL; o.d/i.d. 310/220 μm: dialysis membrane (Gambro, Lund, Sweden) was used in the microdialysis experiments. In the dorsal striatum, probes with an exposed length of 3 mm of dialysis membrane were used and in the prefrontal cortex the corresponding length was 2.5 mm. The rats were operated under isoflurane inhalation anesthesia while mounted into a Kopf stereotaxic instrument. Coordinates were calculated relative to bregma; dorsal striatum AP+1.0, ML±2.6, DV 6.2; Pf cortex, AP 15+3.2, ML+1.2, DV −4.08°, according to Paxinos and Watson (New York, Academic Press, 1986; FIG. 8 and FIG. 14). The dialysis probe was positioned in a burr hole under stereotaxic guidance and cemented with phosphatine dental cement (DAB Dental).
The rats were housed individually in cages for 48 h before the dialysis experiments, allowing them to recover from surgery and minimizing the risk of drug interactions with the anesthetics during the following experiments. During this period the rats had free access to food and water.
On the day of the experiment the rats were connected to a micro-perfusion pump via a swivel and were replaced in the cage where they could move freely within its confinements. The perfusion medium was a Ringer's solution containing (in mmol/I): NaCl; 140, CaCl2; 1.2, KCl; 3.0, MgCl2; 1.0 (Moghaddam and Bunney. Neurochem., 1989, 53; 652-4). The pump was set to a perfusion speed of 2 μl/min and 40 μl sample volume were collected every 20 min.
The rats were perfused for at least 40 min before sampling began. Five fractions of each 20 min were collected and the last three were used for the establishment of the baseline. After collection of baseline fractions, the pharmacological challenge to the dialysis experiment started. Test compounds were administrated by injection (s.c.) in a volume of 5 ml/kg, with 0.9% NaCl (saline) as vehicle.
The analytical method were based on two chromatographic separations dedicated for amines or acids. Two chromatographic systems shared a common auto injector with a 10-port valve and two sample loops for simultaneous injection on the two systems.
The acids were separated by reversed phase chromatography while the amines were separated by reversed phase ion pairing chromatography preceded by a reverse phase separation in a column switching configuration. Three separation columns (Luna C18 (2), dp 3 μm, 2 mm i.d., Phenomenex) of different lengths were used. Electrochemical detection was accomplished on glassy carbon electrodes (MF-1000, Bioanalytical Systems, Inc.)
The aqueous mobile phase (0.6 ml/min) for the acid system contained citric acid (40 mM, dipotassium hydrogen phosphate 10 mM, methanol 8-11% (v/v) and EDTA 0.1 mM. Column length was 30 mm and detection potential relative to Ag/AgCl reference was 0.74V. […]

[3] = 50 μmol/kg s.c., striatum dialysate
[4] = 50 μmol/kg s.c., frontal cortex dialysate, read-out: DA FC ± SEM, maximum effect compared to baseline
[5] = 50 μmol/kg s.c., frontal cortex dialysate, read-out: NA FC ± SEM, maximum effect compared to baseline
[6] = 16.7 μmol/kg s.c., frontal cortex dialysate, Fumarate Salt
[7] = 16.7 μmol/kg s.c., striatum dialysate, Fumarate Salt
[8] = 50 μmol/kg s.c., frontal cortex dialysate, read-out: 5-HT FC ± SEM, maximum effect compared to baseline
[9] = 50 μmol/kg s.c., striatum dialysate, read-out: 5-HT Stri ± SEM, maximum effect compared to baseline
[10] = 50 μmol/kg s.c., striatum dialysate, read-out: DA Stri ± SEM, maximum effect compared to baseline

| Structure (SMILES) | melting point [°C] | response vs control in vivo at 50 µmol/kg [2, 4] [%] | response vs control in vivo at 50 µmol/kg [2, 5] [%] | response vs control in vivo at 50 µmol/kg [2, 8] [%] | response vs control in vivo at 50 µmol/kg [2, 9] [%] | response vs control in vivo at 50 µmol/kg [2, 10] [%] | also measured |
| --- | --- | --- | --- | --- | --- | --- | --- |
| Fc1cc(F)c(C(F)C2CNC2)c(F)c1.O=C(O)C(=O)O (centres unmarked) (hydrate or solvate) | 149.6 |  |  |  |  |  |  |
| CCCN1CC(C(F)c2cccc(F)c2F)C1.O=C(O)C(=O)O (centres unmarked) (hydrate or solvate) | 137.4 |  |  |  |  |  |  |
| CCCN1CC(C(F)c2cc(F)cc(F)c2F)C1.O=C(O)C(=O)O (centres unmarked) (hydrate or solvate) | 159 |  |  |  |  |  |  |
| CCN1CC(C(F)c2cc(F)c(F)c(F)c2)C1.O=C(O)C(=O)O (centres unmarked) (hydrate or solvate) | 129.8 |  |  |  |  |  |  |
| Fc1cc(F)c(F)c(C(F)C2CNC2)c1F.O=C(O)C(=O)O (centres unmarked) (hydrate or solvate) | 181.6 |  |  |  |  |  |  |
| CCN1CC(C(F)c2c(F)c(F)cc(F)c2F)C1.O=C(O)C(=O)O (centres unmarked) (hydrate or solvate) | 145.9 |  |  |  |  |  |  |
| Cl.Fc1cccc(C(F)C2CNC2)c1F (single isomer, unassigned; (+)) [Example 2, (+)-3-[(2,3-Difluorophenyl)(Fluoro)Methyl]Azetidine Hydrochloric Acid Salt] |  | 580 ± 223 | 394 ± 273 |  |  |  | locomotor activity, percent of control means ([1]; 11 μmol/kg s.c.): 152%; locomotor activity, percent of control means ([1]; 33 μmol/kg s.c.): 159%*; 5-HT FC ± SEM, maximum effect compared to baseline ([2]; 50 μmol/kg s.c., frontal cortex dialysate): 253 ± 92^b percent of control; 5-HT Stri ± SEM, maximum effect compared to baseline [2, 3]: 249 ± 5^b percent of control; DA Stri ± SEM, maximum effect compared to baseline [2, 3]: 149 ± 7^b percent of control; NA Stri ± SEM, maximum effect compared to baseline [2, 3]: 126 ± 7^b percent of control |
| Fc1cc(F)cc(C(F)C2CNC2)c1.O=C(O)/C=C/C(=O)O (single isomer, unassigned; (+)) [Example 4, (+)-3-[(3,5-Difluorophenyl)(Fluoro)Methyl]Azetidine Fumarate Salt] |  |  |  |  |  |  | 5-HT FC ± SEM, maximum effect compared to baseline [2, 6]: 170^a percent of control; DA FC ± SEM, maximum effect compared to baseline [2, 6]: 226^a percent of control; NA FC ± SEM, maximum effect compared to baseline [2, 6]: 198^a percent of control; 5-HT Stri ± SEM, maximum effect compared to baseline [2, 7]: 198^a percent of control; DA Stri ± SEM, maximum effect compared to baseline [2, 7]: 116^a percent of control; NA Stri ± SEM, maximum effect compared to baseline [2, 7]: 122^a percent of control |
| Cl.Fc1ccc(C(F)C2CNC2)cc1F (centres unmarked) [Example 5, 3-[(3,4-Difluorophenyl)(Fluoro)Methyl]Azetidine Hydrochloric Acid Salt] |  | 330 ± 75 |  | 234 | 435 ± 61 | 136 ± 4 | NA Stri ± SEM, maximum effect compared to baseline [2, 3]: 480^a percent of control |
| Fc1cccc(F)c1C(F)C1CNC1 (centres unmarked) [Example 7, 3-[(2,6-Difluorophenyl)(Fluoro)Methyl]Azetidine Oxalate Salt] |  | 860 ± 283 | 570 ± 6 | 404 ± 21 | 213 | 130 |  |
| Fc1ccc(C(F)C2CNC2)c(F)c1 (centres unmarked) [Example 8, 3-[(2,4-Difluorophenyl)(Fluoro)Methyl]Azetidine Oxalate Salt] |  | 549 ± 163 | 400 ± 28 | 428 ± 118 | 402 ± 12 | 133 ± 15 |  |
| Fc1cc(F)c(F)c(C(F)C2CNC2)c1.O=C(O)C(=O)O (centres unmarked) [Example 9, 3-[Fluoro(2,3,5-Trifluorophenyl)Methyl]Azetidine Oxalate Salt] |  |  | 840 ± 122 | 207 ± 21 | 231 ± 106 | 127 ± 13 | NA Stri ± SEM, maximum effect compared to baseline [2, 3]: 860^a percent of control |
| Fc1ccc(C(F)C2CNC2)c(F)c1F (centres unmarked) [Example 11, 3-[Fluoro(2,3,4-Trifluorophenyl)Methyl]Azetidine Oxalate Salt] |  | 263 | 342 | 236 | 366 | 85 ± 14 |  |
| Fc1cc(C(F)C2CNC2)cc(F)c1F (centres unmarked) [Example 12, 3-[Fluoro(3,4,5-Trifluorophenyl)Methyl]Azetidine Oxalate Salt] |  | 252 ± 70 | 214 ± 28 | 322 ± 4 | 359 ± 105 | 131 |  |
| CCN1CC(C(F)c2cccc(F)c2F)C1 (centres unmarked) [Example 16, 3-[(2,3-Difluorophenyl)(Fluoro)Methyl]-1-Ethylazetidine Hydrochloric Acid Salt] |  | 229 ± 23 | 272 ± 58 | 197 ± 124 | 313 ± 23 | 139 ± 4 |  |
| CCN1CC(C(F)c2cc(F)cc(F)c2)C1 (centres unmarked) [Example 19, 3-[(3,5-Difluorophenyl)(Fluoro)Methyl]-1-Ethylazetidine Oxalate Salt] |  | 399 ± 30 | 354 ± 54 | 212 ± 15 | 170 ± 63 | 144 ± 10 |  |
| CCCN1CC(C(F)c2cc(F)cc(F)c2)C1 (centres unmarked) [Example 20, 3-[(3,5-Difluorophenyl)(Fluoro)Methyl]-1-Propylazetidine Oxalate Salt] |  | 362 | 264 | 171 | 145 | 111 |  |
| CCN1CC(C(F)c2cc(F)cc(F)c2F)C1 (centres unmarked) [Example 22, 1-Ethyl-3-[Fluoro(2,3,5-Trifluorophenyl)Methyl]Azetidine Oxalate Salt] |  | 654 ± 212 |  | 140 |  | 158 |  |
